Results: patent US20110189291A1, “DENDRIMER HYDROGELS” (priority 2009, published 2011)
In brackets after ≈: the same amount, converted by molar mass. Several values for one entry are separate records, joined by “and”; a condition that tells them apart may be missing. Equal entries are not always repeated. Structures can show the parent of a compound that is named as a salt. Where two headings read alike, the source gives them in different places.

Columns and labels:
physchem = conditions: for solubility: thermodynamic from solid, saturated concentration (solubility); for solubility / saturated concentration (solubility): room temperature
Experimental: Following overnight equilibration at room temperature, the solution was vortexed again and then centrifuged at 10,000 rpm for 5 min to remove undissolved drug. The sample solution was diluted by a factor of 100 in PBS, and absorbance value (Y) at 248 nm was recorded on a GENESYS™ 6 UV-Visual spectrophotometer. Thus, drug concentration (C in μg/mL) was determined using the following regression equation: C=(Y−0.005)/0.063. […] Measurements were done in duplicate.
Following overnight equilibration at room temperature, the solution was vortexed again and then centrifuged to remove undissolved drug. The supernatant was collected, diluted by a factor of 100 in PBS, and its absorbance value (Y) at 248 nm was recorded on a GENESYS™ 6 UV-Visual spectrophotometer. Thus, drug concentration [C] (μg/mL) was determined using the following regression equation: C=(Y−0.005)/0.063 [2]. […] Measurements were done in duplicate.

[1] = In vitro drug release by dialysis in pH 7.4 PBS at 37° C.; type: physicochemical; conditions: for time for complete release (in words): from eye drop formulations
Experimental: The control eye drop formulation was PBS containing 0.1% brimondien and 0.5% timiolol maleate. […] The dissolution medium was maintained at 37±2° C. and constantly agitated in a shaker incubator. 4. Dissolution medium was completely replaced at all time intervals with 1.5 ml of fresh dissolution medium maintained at 37±2° C. 5. The amount of drug released in the dissolution medium at each time interval was analyzed by LC-MS.

[2] = system: Human corneal epithelial cells (HCET); type: cell-based; conditions: 1 h
Experimental: The uptake of brimonidine and timolol maleate by HCET cells after entrapment of the drugs in a hydrogel was studied. As a control, eye drop formulation of both the drugs in phosphate buffer saline was used. • 1. Human corneal epithelial cells (HCET, passage #40) were seeded in a 48 well plate (BD, Falcon®, Multiwell™ tissue culture plates) at a seeding density of 5000 cells/well. • 2. The cells were allowed to adhere to the surface of the well overnight. • 3. […] The cells were washed twice with 200 μl cold PBS pH 7.4 and twice with 200 μl cold acidic PBS pH 5.0. All the washes were collected. Finally, 200 μl of 1% w/v Triton X 100 solution was transferred to each well and allowed to stand for 30 minutes. • 6. The cells were scraped (dislodged) using a pipette tip and suspension of cells in 1% Triton X 100 solution was collected. • 7. Samples were processed as follows: 100 μl of sample collected as described above was diluted to 500 μl using acetonitrile. The samples were vortexed for 10 minutes and centrifuged at 10,000 rpm for 5 minutes, and then analyzed using LC-MS as described in Table 4. Dorzolamide was used as an internal standard

[3] = Ex vivo transcorneal transport
Experimental: 1. Corneas were isolated from freshly excised bovine eyes and mounted in Using chambers. 2. […] Note: Both drugs were present together in this hydrogel/solution cocktail. 3. […] 4. 200 μl of sample was collected from the receiver side with fresh assay buffer replacement at the end of 1, 2, 3, 4 and 6 h. 5. […] 6. Samples were stored at −80° C. prior to analysis. 7. Cumulative percent transport was normalized to the amount of drug present at zero time point.

[4] = Ex vivo bovine eye tissue uptake after topical dosing; type: in vitro ADME
Experimental: 1. […] Eyes were kept in the muffin plate and partially dipped into PBS pH 7.4. 3. 50 μl of hydrogel formulation or solution was instilled gently as an eye drop onto the corneal surface. 4. After every 15 minutes, 50 μl of fresh PBS pH 7.4 was instilled as an eye drop to prevent corneal drying. 5. At the end of 1 h, eyes were dissected and the following tissues were collected: corneal epithelium, stroma, endothelium and aqueous humor. Tissues were stored at −80° C. before sample processing and analysis. 1. Tissues weights were recorded and 0.49 ml of 2% NaOH solution was added to these tissues along with 10 μl of IS of 12.5 μg/ml. 2. Samples were homogenized, sonicated, and extracted with organic solvent. Final reconstitution was done in 0.5 ml of acetonitrile-water mixture (75:25).

duration of sustained release ([1]; from DH formulation)	time for complete release (in words) [1]	Mean % drug content in first wash with acidic buffer [2]	Mean % drug content in second wash with acidic buffer [2]	Mean % drug content in supernatant after completion of study [2]	Mean % drug content in first wash with acidic buffer ([2]; pH 7.4)	Mean % drug content in second wash with acidic buffer ([2]; pH 7.4)	Mean % drug content in supernatant after completion of study ([2]; pH 7.4)	Structure (SMILES)	also measured
~72 h	within one hour and a half	0.00%	0.00%	0.00%	93.13%	2.92%	0.06%	Brc1c(NC2=NCCN2)ccc2nccnc12 [brimonidine]	solubility (physchem; 8.1% (w/v) G3.0-PEG-dA in PBS, aqueous with cosolvent or surfactant or cyclodextrin, in the presence of G3.0-PEG-dA (8.1% w/v in PBS; DH formulation)): 696 µg/mL; solubility increase (physchem; G3.0-PEG-dA / DH formulation versus plain PBS): 77.5% and 77.6%; solubility (physchem; PBS, aqueous buffer, plain PBS): 392 µg/mL (≈ 1340 µM); saturated concentration (solubility) (physchem; in the presence of G3.0-PEG-dA (8.1% w/v in PBS; DH formulation)): 696 µg/mL; saturated concentration (solubility) (physchem; plain PBS): 392 µg/mL; duration of sustained release ([1]; from hydrogel Formulation C (0.1% brimonidine, 0.5% timolol maleate), 37° C.): 72 h; Mean % drug content in cell lysate after completion of study (uptake) [2]: 76.17%; uptake with DH formulation higher than with eye drop formulation [2]: 19 fold; corneal transport, hydrogel formulation versus solution (in words) ([3]; at the end of 6 h): slightly higher transport; cumulative percentage transport across the cornea ([3]; from the DH formulation, at 6 h): 1.06±0.18%; level in aqueous humor, hydrogel versus eye drop formulation (in words) ([4]; 1 h after topical instillation): significant difference in drug level was not observed
~56 h	within one hour and a half	0.0%	14.9%	0.1%	0.0%	34.7%	0.2%	CC(C)(C)NC[C@H](O)COc1nsnc1N1CCOCC1 [timolol maleate]	corneal transport, hydrogel formulation versus solution (in words) [3]: higher from hydrogel; cumulative percentage transport across the cornea ([3]; bovine, 6 h, pH 7): 13.54±1.83%; level from hydrogel formulation more than from eye drop solution ([4]; bovine, 1 h, 0.5 %, pH 7.4): 40%
